Values after ≈ are worked out from the molar mass of the structure shown. Where two headings read alike, the source gives them in different places.

One series relates to souris. Kind of series: Acute toxicity (mortality, LD50) in mice. The class given is in vivo. As to conditions: mouse.
The nature of series [1]: Acute toxicity (mortality, LD50) in mice. The class given is in vivo. To be noted: in vivo, mouse, read-out: mortalité.
In series [2] the test system is rat soumis à une surcharge hydrique. As to the kind of experiment: Diuretic activity in rats given a water overload, oral. To be noted: read-out: facteur multipliant l'excrétion urinaire du sodium. The class given is in vivo. Here is the method:
L'activité diurétique a été déterminée sur plusieurs modèles expérimentaux. Chez le rat soumis à une surcharge hydrique, administrés par voie orale à la dose de 20 mg/kg, le COR3760, le COR3789, le COR3792, le COR4002, le COR4003, le COR4009, le COR4010, le COR4012 et le COR4014 multiplient l'excrétion urinaire du sodium par respectivement un facteur 2,9 - 3,1 - 5,9 - 2,6 - 7,2 - 3,5 - 3,8 - 2,9 - 2,4. Administrés à la dose de 10 mg/kg, dans les mêmes conditions, les COR3760, COR3789, COR3792, COR4003 et COR4010 multiplient l'excrétion sodique par respectivement 2,3 - 2,9 - 2,8 - 2,4 et 2,5. La spironolactone multiplie quant à elle l'excrétion sodique d'un facteur 3,6 à la dose de 20 mg/kg. Administré à la dose de 5 mg/kg dans les mêmes conditions, le COR3792 multiplie l'excrétion sodique par 3,3. Administré par voie orale chez le rat ou la souris soumis à une surcharge saline, le COR3760 augmente l'excrétion urinaire volumétrique mesurée à la sixième heure de respectivement 49, 119 et 134% chez la souris et 28, 84 et 116% chez le rat après administration de 10, 20, et 40 mg/kg. Le COR3760 a été administré par voie orale au rat soumis à une surcharge hydrique et l'excrétion urinaire volumétrique, le sodium et le potassium excrétés ont été mesurés sur une période de 6 heures; ces paramètres ont varié de respectivement +17%, +102%, +165% à 10 mg/kg, +19%, +147%, +180% à 20 mg/kg et +36%, +415% et +239% à 40 mg/kg; le rapport Na/K passe de 0,56 chez les animaux témoins à 0,4 à 10 mg/kg, 0,49 à 20 mg/kg et 0, 8 à 40 mg/ kg. Au cours d'une seconde expérimentation, le COR3760 a entrainé des variations de +19%, +157%, +70% à 40 mg/kg, +19%, +319%, +90% à 60 mg/kg et +29%, +472% et +77% à 80 mg/kg; le rapport Na/K passe de 0,59 chez les animaux témoins à 0,88 à 40, 1,15 à 60 et 1,88 à 80 mg/kg.

Series [3] has as its system rat Wistar soumis à une surcharge saline. Kind of series: Diuretic activity in selected Wistar rats given a saline overload (modified Wiebelhaus test). Format: in vivo. As to the method:
L'activité diurétique des produits selon l'invention a été également déterminée chez le rat Wistar soumis à une surcharge saline selon une modification du test décrit par Wiebelhaus et coll., Fed. Proc., 1960, 19, 364, en procédant à une sélection des animaux. A la dose de 20 mg/kg, les COR4003, COR4008, COR4009, COR4010, COR4011, COR4012, COR4014, COR4016, COR4021, COR4025 augmentent l'excrétion urinaire volumétrique mesurée au bout de 6 heures de respectivement 56, 54, 65, 95, 73, 54, 33, 40, 99 et 92 %. L'excrétion urinaire du sodium augmente de respectivement 56, 24, 42, 59, 43, 33, 29, 43, 31, 83, 26, 99, 40 % toujours à cette dose pour les COR4003, COR4008, COR4009, COR4010, COR4011, COR4012, COR4014, COR4016, COR4017, COR4021, COR4023, COR4025 et COR4026. Le rapport Na/K demeure la plupart du temps inchangé. Testé dans les mêmes conditions le furosémide, administré à la dose de 20 mg/kg entraine 63% d'augmentation de l'excrétion urinaire volumétrique et 53% d'augmentation de l'excrétion urinaire du sodium.

Series [4] deals with poumon de cobaye isolé perfusé. Kind of series: Bronchodilator activity: isolated perfused guinea pig lung contracted by methacholine. To be noted: flow of Tyrode solution, lung contracted by 0,05 microg/ml methacholine; read-out: concentration qui augmente ce débit de 50%. An excerpt:
L'activité bronchodilatatrice a été déterminée in vitro par la mesure du débit d'une solution de Tyrode à travers un poumon de cobaye isolé perfusé, contracté par l'addition au fluide de perfusion de 0,05 microg/ml de méthacholine. Les COR3760, COR3789, COR3792, COR4003, COR4008, COR4010 et COR4014 utilisés respectivement aux concentrations de 50, 50, 100, 10, 50, 50 et 10 microg/ml augmentent ce débit de 50%. L'aminophylline entraine cette même activité à la concentration de 100 microg/ml.

Series [5] concerns oedème induit par l'injection intraplantaire de carragénine chez le rat. As to the kind of experiment: Anti-inflammatory activity: carrageenan paw oedema in rats. The class given is in vivo. As to conditions: oral 1 h before carrageenan, measured 3 h after, 150 mg/kg. Here is the method:
L'activité antiinflammatoire a été déterminée chez le rat par la mesure de l'inhibition de l'oedème induit par l'injection intraplantaire de 0,1 ml d'une suspension à 1% de carragénine chez le rat. Les produits à tester sont administrés par voie orale lh avant l'injection de carragénine et la mesure est réalisée 3h après cette injection. Les COR3789, COR3792, COR4003, COR4008 et COR4010 administrés à 10b mg/kg entrainent respectivement 43, 42, 41, 38 et 39% d'inhibition. Administré à 200 mg/kg, le COR3773 entraine 53% d'inhibition. L'aspirine administrée dans les mêmes conditions à 150 mg/kg entraine 40% d'inhibition de l'oedème.
On the technique in general: Carrageenan injected into the paw causes an acute inflammation.

[6] abbreviates: rat, water overload, oral, 20 mg/kg.
The mark [7] stands for this setting: 6 h, read-out: augmentation de l'excrétion urinaire volumétrique mesurée au bout de 6 heures.
[8] abbreviates: read-out: augmentation de l'excrétion urinaire du sodium.

On to `CCNC(C)=C1C(=O)c2ccc(Cl)cc2C1=O` [COR3774, Chloro-5 (éthylamino-1 éthylidène)-2 indanedione-1,3], for which the mortalité result in the series with souris (intraperitoneal, 200 mg/kg) is reported as “aucune mortalité”; in the series on souris (oral, 300 mg/kg), “aucune mortalité”.
With `CC(=C1C(=O)c2ccccc2C1=O)N(C)C` [COR3788, (Diméthylamino-1 éthylidène)-2 indanedione-1,3], the mortality in series [1] (ip, intraperitoneal, 200 mg/kg) amounted to 100%; in series [1] (oral, 300 mg/kg), 100%. Further, the mortalité entry with souris (intraperitoneal, 100 mg/kg) is recorded as “aucune mortalité”.
For the compound `CC(NC(C)(C)C)=C1C(=O)c2ccccc2C1=O` [COR4001, (Tertiobutylamino-1 éthylidényl)-2 indanedione-1,3], the mortality was 100% in series [1] (ip, intraperitoneal, 200 mg/kg) and 100% in series [1] (oral, 300 mg/kg). Further, the mortalité entry with souris (intraperitoneal, 100 mg/kg) is “aucune mortalité”; with souris (oral, 100 mg/kg), “aucune mortalité”.
In the case of `CNC(C)=C1C(=O)c2ccc([N+](=O)[O-])cc2C1=O` [COR4002, Nitro-5 (méthylamino-1 éthylidényl)-2 indanedione-1,3], the response vs control in vivo at 20 mg/kg in series [2] (setting [6]) was found to be 260%. The mortality in series [1] (ip, intraperitoneal, 200 mg/kg) was 100%; in series [1] (oral, 300 mg/kg) it was 100%. For the same compound, the mortalité result in the series on souris (intraperitoneal, 100 mg/kg) is “aucune mortalité”; with souris (oral, 100 mg/kg), “aucune mortalité”.
Regarding `CNC(=C1C(=O)c2ccccc2C1=O)c1ccccc1` [COR4004, (Alpha-méthylamino benzylidényl)-2 indanedione-1,3], the mortalité entry is reported as “aucune mortalité” with souris (intraperitoneal, 200 mg/kg) and “aucune mortalité” with souris (oral, 300 mg/kg).
As for `CNC(C)=C1C(=O)c2cc(Cl)c(Cl)cc2C1=O` [COR4006, Dichloro-5,6 (méthylamino-1 éthylidényl)-2 indanedione-1,3], the mortalité entry in the series on souris (intraperitoneal, 200 mg/kg) is on record as “aucune mortalité”; in the series on souris (oral, 300 mg/kg), “aucune mortalité”.
For `CCNC(C)=C1C(=O)c2cc(Cl)c(Cl)cc2C1=O` [COR4007, Dichloro-5,6 (éthylamino-1 éthylidényl)-2 indanedione-1,3], the mortalité entry in the series with souris (intraperitoneal, 200 mg/kg) is “aucune mortalité”; with souris (oral, 300 mg/kg), “aucune mortalité”.
Turning to `CC(NC1CCCC1)=C1C(=O)c2ccccc2C1=O` [COR4012, (Cyclopentylamino-1 éthylidényl)-2 indanedione-1,3], in series [2] (setting [6]), the response vs control in vivo at 20 mg/kg amounted to 290%. Moreover, the mortalité entry in the series with souris (intraperitoneal, 200 mg/kg) is reported as “aucune mortalité”; in the series on souris (oral, 300 mg/kg), “aucune mortalité”. In addition, the change in vivo at 20 mg/kg in series [3] (setting [7]) stood at 54%; in series [3] (setting [8]) it was 33%.
On to `CC(NC1CCCCC1)=C1C(=O)c2ccccc2C1=O` [COR4013, (Cyclohexylamino-1 éthylidényl)-2 indanedione-1,3], for which the mortalité result in the series with souris (intraperitoneal, 200 mg/kg) was “aucune mortalité”; in the series with souris (oral, 300 mg/kg), “aucune mortalité”.
For the compound `CC(=O)NS(=O)(=O)c1cc2c(cc1Cl)C(=O)C(=C(C)NC(C)C)C2=O` [COR4015, N-acétylsulfonamido-6 chloro-5 (isopropylamino-1 éthylidényl)-2 indanedione-1,3], the mortalité entry was “aucune mortalité” with souris (intraperitoneal, 200 mg/kg) and “aucune mortalité” in the series on souris (oral, 300 mg/kg).
`CC(NC(C)C)=C1C(=O)c2cc(Cl)c(Cl)cc2C1=O` [COR4016, Dichloro-5,6 (isopropylamino-1 éthylidényl)-2 indanedione-1,3]: the mortalité result in the series with souris (intraperitoneal, 200 mg/kg) is “aucune mortalité”; in the series on souris (oral, 300 mg/kg), “aucune mortalité”. For the same compound, the change in vivo at 20 mg/kg in series [3] (setting [7]) was determined as 40%; in series [3] (setting [8]) it was 43%.
As for `CCCC(NC)=C1C(=O)c2ccccc2C1=O` [COR4017, (Méthylamino-1 butylidényl)-2 indanedione-1,3], in series [3] (setting [8]), the change in vivo at 20 mg/kg came out at 31%.
With `CCNC(CC)=C1C(=O)c2ccccc2C1=O` [COR4021, (Ethylamino-1 propylidényl)-2 indanedione-1,3], the figures for the change in vivo at 20 mg/kg in series [3] (setting [7]) and in series [3] (setting [8]) were 99% and 83%, respectively.
Regarding `CC(C)NC(=C1C(=O)c2ccccc2C1=O)C(C)C` [COR4023, (Isopropylamino-1 isobutylidényl)-2 indanedione-1,3], the change in vivo at 20 mg/kg in series [3] (setting [8]) is 26%.
As to `CCC(NC(C)C)=C1C(=O)c2ccccc2C1=O` [COR4025, (Isopropylamino-1 propylidényl)-2 indanedione-1,3], the change in vivo at 20 mg/kg in series [3] (setting [7]) worked out at 92%; in series [3] (setting [8]) it was 99%.
With `CC(N)=C1C(=O)c2ccccc2C1=O` [COR4026, (Amino-1 éthylidényl)-2 indanedione-1,3], the change in vivo at 20 mg/kg in series [3] (setting [8]) is 40%.
With `Cn1c(=O)c2[nH]cnc2n(C)c1=O` [aminophylline, reference compound], the EC50 in series [4] stood at 100 µg/mL (≈ 555 µM).
Take `CC(=O)Oc1ccccc1C(=O)O` [aspirine, reference compound]: the “inhibition de l'oedème” value in series [5] worked out at 40%.
As for `NS(=O)(=O)c1cc(C(=O)O)c(NCc2ccco2)cc1Cl` [furosémide, reference compound], the change in vivo at 20 mg/kg stood at 63% in series [3] (setting [7]) and 53% in series [3] (setting [8]).
As to `CC(=O)S[C@@H]1CC2=CC(=O)CC[C@]2(C)[C@H]2CC[C@@]3(C)[C@@H](CC[C@@]34CCC(=O)O4)[C@H]12` [spironolactone, reference compound], the response vs control in vivo at 20 mg/kg in series [2] (Rattus norvegicus, po) amounted to 360%.
